{"source": "patent US20230085307A1", "about": "“PYRIDAZINONE COMPOUND AND HERBICIDE” (NISSAN CHEMICAL CORPORATION, priority 2019, published 2023)", "key": {"barnyard grass [1]": {"tested_on": "barnyard grass", "experiment": "Test Example 3: herbicidal effect by foliage application, Wagner pot (Table 18, symbol H)", "type": "in vivo, barnyard grass (Echinochloa crus-galli)", "how_it_was_run": "(§1)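 Plants were sown in alluvial soil held under 0.1–0.5 cm standing water and grown 14 days in a greenhouse at 25–30 °C. An emulsifiable formulation, water-diluted to the set dose, was then sprayed onto the foliage, and effects were scored three weeks later using previously defined criteria.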"}, "Chinese sprangletop": {"tested_on": "Chinese sprangletop", "experiment": "Test Example 3: herbicidal effect by foliage application, Wagner pot (Table 18, symbol D)", "type": "in vivo, chinese sprangletop (Leptochloa chinensis)", "how_it_was_run": "as §1"}, "rice flat sedge": {"tested_on": "rice flat sedge", "experiment": "Test Example 3: herbicidal effect by foliage application, Wagner pot (Table 18, symbol E)", "type": "in vivo, rice flat sedge (Cyperus iria)", "how_it_was_run": "as §1"}, "southern crabgrass [2]": {"tested_on": "southern crabgrass", "experiment": "Test Example 4: herbicidal effect by soil treatment (Table 19, symbol F)", "type": "in vivo, southern crabgrass (Digitaria ciliaris)", "how_it_was_run": "(§2)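 Emulsion of test compound, water-diluted to predetermined amount, sprayed on soil after sowing (seed depth ~1.5 cm, sterilized diluvial soil). Greenhouse, 25–30° C. Effect graded at three weeks post-spray.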"}, "green foxtail [3]": {"tested_on": "green foxtail", "experiment": "Test Example 4: herbicidal effect by soil treatment (Table 19, symbol G)", "type": "in vivo, green foxtail (Setaria viridis)", "how_it_was_run": "as §2"}, "barnyard grass [4]": {"tested_on": "barnyard grass", "experiment": "Test Example 4: herbicidal effect by soil treatment (Table 19, symbol H)", "type": "in vivo, barnyard grass (Echinochloa crus-galli)", "how_it_was_run": "as §2"}, "wild oat [5]": {"tested_on": "wild oat", "experiment": "Test Example 4: herbicidal effect by soil treatment (Table 19, symbol I)", "type": "in vivo, wild oat (Avena fatua)", "how_it_was_run": "as §2"}, "blackgrass [6]": {"tested_on": "blackgrass", "experiment": "Test Example 4: herbicidal effect by soil treatment (Table 19, symbol J)", "type": "in vivo, blackgrass (Alopecurus myosuroides)", "details": "amount of applied herbicide 320 g/ha", "how_it_was_run": "as §2"}, "Italian ryegrass [7]": {"tested_on": "Italian ryegrass", "experiment": "Test Example 4: herbicidal effect by soil treatment (Table 19, symbol K)", "type": "in vivo, Italian ryegrass (Lolium multiflorum)", "how_it_was_run": "as §2"}, "windgrass [8]": {"tested_on": "windgrass", "experiment": "Test Example 4: herbicidal effect by soil treatment (Table 19, symbol L)", "type": "in vivo, windgrass (Apera spica-venti)", "how_it_was_run": "as §2"}, "velvetleaf [9]": {"tested_on": "velvetleaf", "experiment": "Test Example 4: herbicidal effect by soil treatment (Table 19, symbol M)", "type": "in vivo, velvetleaf (Abutilon theophrasti)", "how_it_was_run": "as §2"}, "redroot pigweed": {"tested_on": "redroot pigweed", "experiment": "Test Example 4: herbicidal effect by soil treatment (Table 19, symbol N)", "type": "in vivo, redroot pigweed (Amaranthus retroflexus)", "how_it_was_run": "as §2"}, "lambsquarters [10]": {"tested_on": "lambsquarters", "experiment": "Test Example 4: herbicidal effect by soil treatment (Table 19, symbol O)", "type": "in vivo, lambsquarters (Chenopodium album)", "how_it_was_run": "as §2"}, "chickweed": {"tested_on": "chickweed", "experiment": "Test Example 4: herbicidal effect by soil treatment (Table 19, symbol P)", "type": "in vivo, common chickweed (Stellaria media)", "how_it_was_run": "as §2"}, "persian speedwell [11]": {"tested_on": "persian speedwell", "experiment": "Test Example 4: herbicidal effect by soil treatment (Table 19, symbol R)", "type": "in vivo, Persian speedwell (Veronica persica)", "how_it_was_run": "as §2"}, "southern crabgrass [12]": {"tested_on": "southern crabgrass", "experiment": "Test Example 5: herbicidal effect by foliage application, plastic box (Table 20, symbol F)", "type": "in vivo, southern crabgrass (Digitaria ciliaris)", "details": "foliage application, 320 g/ha, 3 weeks after application", "how_it_was_run": "(§3)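 Post-emergence foliar test in sterilized diluvial soil. Compound applied as water-diluted emulsion at a predetermined rate to 14-day-old plants; evaluation at three weeks.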"}, "green foxtail [13]": {"tested_on": "green foxtail", "experiment": "Test Example 5: herbicidal effect by foliage application, plastic box (Table 20, symbol G)", "type": "in vivo, green foxtail (Setaria viridis)", "details": "foliage application, 320 g/ha, 3 weeks after application", "how_it_was_run": "as §3"}, "barnyard grass [14]": {"tested_on": "barnyard grass", "experiment": "Test Example 5: herbicidal effect by foliage application, plastic box (Table 20, symbol H)", "type": "in vivo, barnyard grass (Echinochloa crus-galli)", "details": "foliage application, 320 g/ha, 3 weeks after application", "how_it_was_run": "as §3"}, "wild oat [15]": {"tested_on": "wild oat", "experiment": "Test Example 5: herbicidal effect by foliage application, plastic box (Table 20, symbol I)", "type": "in vivo, wild oat (Avena fatua)", "details": "foliage application, 320 g/ha, 3 weeks after application", "how_it_was_run": "as §3"}, "blackgrass [16]": {"tested_on": "blackgrass", "experiment": "Test Example 5: herbicidal effect by foliage application, plastic box (Table 20, symbol J)", "type": "in vivo, blackgrass (Alopecurus myosuroides)", "details": "foliage application, 320 g/ha, 3 weeks after application", "how_it_was_run": "as §3"}, "Italian ryegrass [17]": {"tested_on": "Italian ryegrass", "experiment": "Test Example 5: herbicidal effect by foliage application, plastic box (Table 20, symbol K)", "type": "in vivo, Italian ryegrass (Lolium multiflorum)", "details": "foliage application, 320 g/ha, 3 weeks after application", "how_it_was_run": "as §3"}, "windgrass [18]": {"tested_on": "windgrass", "experiment": "Test Example 5: herbicidal effect by foliage application, plastic box (Table 20, symbol L)", "type": "in vivo, windgrass (Apera spica-venti)", "details": "foliage application, 320 g/ha, 3 weeks after application", "how_it_was_run": "as §3"}, "velvetleaf [19]": {"tested_on": "velvetleaf", "experiment": "Test Example 5: herbicidal effect by foliage application, plastic box (Table 20, symbol M)", "type": "in vivo, velvetleaf (Abutilon theophrasti)", "details": "foliage application, 320 g/ha, 3 weeks after application", "how_it_was_run": "as §3"}, "lambsquarters [20]": {"tested_on": "lambsquarters", "experiment": "Test Example 5: herbicidal effect by foliage application, plastic box (Table 20, symbol O)", "type": "in vivo, lambsquarters (Chenopodium album)", "details": "foliage application, 320 g/ha, 3 weeks after application", "how_it_was_run": "as §3"}, "persian speedwell [21]": {"tested_on": "persian speedwell", "experiment": "Test Example 5: herbicidal effect by foliage application, plastic box (Table 20, symbol R)", "type": "in vivo, Persian speedwell (Veronica persica)", "details": "foliage application, 320 g/ha, 3 weeks after application", "how_it_was_run": "as §3"}, "[22]": {"details": "amount of applied herbicide 320 g/ha"}}, "data": [{"compound": "COc1cc(Cl)ccc1-c1sc2ccc(F)cc2c1-c1c(O)c(C)nn(C)c1=O", "note": "[2-368]", "values": [{"measurement": "herbicidal effect on H: barnyard grass", "setting": "barnyard grass [1]; [22]", "result": "4 (Herbicidal rate of 70% or more and less than 90%)"}, {"measurement": "herbicidal effect on D: Chinese sprangletop", "setting": "Chinese sprangletop; [22]", "result": "3 (Herbicidal rate of 40% or more and less than 70%)"}, {"measurement": "herbicidal effect on E: rice flat sedge", "setting": "rice flat sedge; [22]", "result": "3 (Herbicidal rate of 40% or more and less than 70%)"}, {"measurement": "herbicidal effect, F: southern crabgrass", "setting": "southern crabgrass [2]; [22]", "result": "0 (Herbicidal rate of 5% or less (almost no effect))"}, {"measurement": "herbicidal effect, G: green foxtail", "setting": "green foxtail [3]; [22]", "result": "0 (Herbicidal rate of 5% or less (almost no effect))"}, {"measurement": "herbicidal effect, H: barnyard grass", "setting": "barnyard grass [4]; [22]", "result": "0 (Herbicidal rate of 5% or less (almost no effect))"}, {"measurement": "herbicidal effect, I: wild oat", "setting": "wild oat [5]; [22]", "result": "0 (Herbicidal rate of 5% or less (almost no effect))"}, {"measurement": "herbicidal effect, J: blackgrass", "setting": "blackgrass [6]", "result": "0 (Herbicidal rate of 5% or less (almost no effect))"}, {"measurement": "herbicidal effect, K: Italian ryegrass", "setting": "Italian ryegrass [7]; [22]", "result": "0 (Herbicidal rate of 5% or less (almost no effect))"}, {"measurement": "herbicidal effect, L: windgrass", "setting": "windgrass [8]; [22]", "result": "4 (Herbicidal rate of 70% or more and less than 90%)"}, {"measurement": "herbicidal effect, M: velvetleaf", "setting": "velvetleaf [9]; [22]", "result": "0 (Herbicidal rate of 5% or less (almost no effect))"}, {"measurement": "herbicidal effect, N: redroot pigweed", "setting": "redroot pigweed; [22]", "result": "2 (Herbicidal rate of 20% or more and less than 40%)"}, {"measurement": "herbicidal effect, O: lambsquarters", "setting": "lambsquarters [10]; [22]", "result": "3 (Herbicidal rate of 40% or more and less than 70%)"}, {"measurement": "herbicidal effect, P: chickweed", "setting": "chickweed; [22]", "result": "0 (Herbicidal rate of 5% or less (almost no effect))"}, {"measurement": "herbicidal effect, R: persian speedwell", "setting": "persian speedwell [11]; [22]", "result": "0 (Herbicidal rate of 5% or less (almost no effect))"}]}, {"compound": "Cc1nn(C)c(=O)c(-c2c(-c3ccc(F)cc3)sc3ccc(F)cc23)c1OCC(=O)c1ccccc1", "note": "[2-008]", "values": [{"measurement": "herbicidal effect on H (barnyard grass), rating 0-5", "setting": "barnyard grass [1]; 320 g/ha", "result": "2 (Herbicidal rate of 20% or more and less than 40%)"}, {"measurement": "herbicidal effect on D (Chinese sprangletop), rating 0-5", "setting": "Chinese sprangletop; 320 g/ha", "result": "1 (Herbicidal rate of 5% or more and less than 20%)"}, {"measurement": "herbicidal effect on E (rice flat sedge), rating 0-5", "setting": "rice flat sedge; 320 g/ha", "result": "4 (Herbicidal rate of 70% or more and less than 90%)"}, {"measurement": "herbicidal effect rating, F: southern crabgrass", "setting": "southern crabgrass [2]; 320 g/ha", "result": "0 (Herbicidal rate of 5% or less (almost no effect))"}, {"measurement": "herbicidal effect rating, G: green foxtail", "setting": "green foxtail [3]; 320 g/ha", "result": "0 (Herbicidal rate of 5% or less (almost no effect))"}, {"measurement": "herbicidal effect rating, H: barnyard grass", "setting": "barnyard grass [4]; 320 g/ha", "result": "0 (Herbicidal rate of 5% or less (almost no effect))"}, {"measurement": "herbicidal effect rating, I: wild oat", "setting": "wild oat [5]; 320 g/ha", "result": "0 (Herbicidal rate of 5% or less (almost no effect))"}, {"measurement": "herbicidal effect rating, K: Italian ryegrass", "setting": "Italian ryegrass [7]; 320 g/ha", "result": "0 (Herbicidal rate of 5% or less (almost no effect))"}, {"measurement": "herbicidal effect rating, L: windgrass", "setting": "windgrass [8]; 320 g/ha", "result": "0 (Herbicidal rate of 5% or less (almost no effect))"}, {"measurement": "herbicidal effect rating, M: velvetleaf", "setting": "velvetleaf [9]; 320 g/ha", "result": "0 (Herbicidal rate of 5% or less (almost no effect))"}, {"measurement": "herbicidal effect rating, N: redroot pigweed", "setting": "redroot pigweed; 320 g/ha", "result": "4 (Herbicidal rate of 70% or more and less than 90%)"}, {"measurement": "herbicidal effect rating, O: lambsquarters", "setting": "lambsquarters [10]; 320 g/ha", "result": "0 (Herbicidal rate of 5% or less (almost no effect))"}, {"measurement": "herbicidal effect rating, P: chickweed", "setting": "chickweed; 320 g/ha", "result": "0 (Herbicidal rate of 5% or less (almost no effect))"}, {"measurement": "herbicidal effect rating, R: persian speedwell", "setting": "persian speedwell [11]; 320 g/ha", "result": "0 (Herbicidal rate of 5% or less (almost no effect))"}, {"measurement": "effect on southern crabgrass (F)", "setting": "southern crabgrass [12]", "result": "0 (Herbicidal rate of 5% or less (almost no effect))"}, {"measurement": "effect on green foxtail (G)", "setting": "green foxtail [13]", "result": "0 (Herbicidal rate of 5% or less (almost no effect))"}, {"measurement": "effect on barnyard grass (H)", "setting": "barnyard grass [14]", "result": "0 (Herbicidal rate of 5% or less (almost no effect))"}, {"measurement": "effect on wild oat (I)", "setting": "wild oat [15]", "result": "0 (Herbicidal rate of 5% or less (almost no effect))"}, {"measurement": "effect on blackgrass (J)", "setting": "blackgrass [16]", "result": "0 (Herbicidal rate of 5% or less (almost no effect))"}, {"measurement": "effect on Italian ryegrass (K)", "setting": "Italian ryegrass [17]", "result": "3 (Herbicidal rate of 40% or more and less than 70%)"}, {"measurement": "effect on windgrass (L)", "setting": "windgrass [18]", "result": "0 (Herbicidal rate of 5% or less (almost no effect))"}, {"measurement": "effect on velvetleaf (M)", "setting": "velvetleaf [19]", "result": "1 (Herbicidal rate of 5% or more and less than 20%)"}, {"measurement": "effect on lambsquarters (O)", "setting": "lambsquarters [20]", "result": "1 (Herbicidal rate of 5% or more and less than 20%)"}, {"measurement": "effect on persian speedwell (R)", "setting": "persian speedwell [21]", "result": "3 (Herbicidal rate of 40% or more and less than 70%)"}]}]}
